Like-named read-outs stand apart in the source and are kept apart here.
Tests used:
[1] = target: human cannabinoid CB2 receptor (Homo sapiens, UniProt P34972); assay: biochemical; format: binding
Protocol: 3. In Vitro Binding Affinity of the Test Compounds to CB2 Receptors
After incubation of a freshly prepared cell membrane preparation with the [^3H]-ligand, with or without the addition of the compounds described herein, separation of bound and free ligand is performed by filtration over glass-fiber filters. Radioactivity on the filter is measured by liquid scintillation counting.

[2] = tested on: rat perifused pancreatic islets; assay: KATP opening effects through insulin secretion in rat perifused pancreatic islets; format: cell-based; settings: 11 mM glucose; for % Inhibition 0-30 (insulin secretion): 0-30 minutes; for % Inhibition 30-60 (insulin secretion): 30-60 minutes
Protocol: Determination of the KATP Opening Effects of Compounds Through Insulin Secretion in Rat Perifused Pancreatic Islets
The animals were maintained on a 12 h light-dark cycle (lights on 06.00-18.00 h) with free access to standard rodent diet (B&K Universal Ltd standard rat and mouse diet (BK 001P), Beekay Feeds, B&K Universal Ltd, Hull, East Riding of Yorkshire) and tap water. The rats were conditioned to this environment for at least one week before experimentation.
Experimental procedures: After the rats were sacrificed, the branch of the bile duct leading to the liver and the duodenal end of the duct in the pancreas were clamped and the pancreas distended by injection of ice-cold 0.9 mg/ml collagenase solution into the bile duct. […] Following incubation, 10 ml of cold buffer was added and the suspension shaken vigorously by hand for 1 min. The islets were allowed to settle for 5 min on ice and washed three times using ice-cold buffer. Well-formed and good-sized islets from three rats were hand-picked (under a low power microscope) and pooled and a final selection of islet transferred to the perifusion apparatus.
Two experiments were performed in parallel in two identical, independent sets of perifusion apparatus each consisting of sufficient number of chambers. Each chamber was loaded with 20 hand-picked islets. Islets were perifused for an initial 30 min period in media containing 4 mM glucose. Perifusate was then collected at 2 min intervals for the remainder of the experiment. […] Perifusate fractions were stored at −75° C. until required for insulin assay. Insulin content of fractions were assayed using a 96-well ELISA assay (Mercodia). Initial insulin assays were performed in triplicate on three pooled fractions from each chamber.
Data were initially expressed as a simple mean of the three experiments for insulin secretion (pg/islet/min) and multiple t-tests (against the corresponding vehicle time period) used to determine potential significant effects of treatments. Alternatively, data were also calculated as a % vehicle effect for each experimental day. This latter approach was deemed to be the more powerful analysis as it corrected for the day to day variation in insulin release from the islets.

hamster SUR1 = target: T1, hamster SUR1 (Cricetus cricetus, UniProt Q09427); assay: In vitro binding affinity to rodent KATP channels: SUR1 ([3H]glibenclamide displacement, COS cell membranes); settings: hamster SUR1 in COS cell membranes; read-out: Affinity to SUR 1 (converted)
T1 construct: expressed in transfected cells; host or cells: COS-1 cells, transient (pcDNA vector)
T1 sequence (Q09427 whole entry): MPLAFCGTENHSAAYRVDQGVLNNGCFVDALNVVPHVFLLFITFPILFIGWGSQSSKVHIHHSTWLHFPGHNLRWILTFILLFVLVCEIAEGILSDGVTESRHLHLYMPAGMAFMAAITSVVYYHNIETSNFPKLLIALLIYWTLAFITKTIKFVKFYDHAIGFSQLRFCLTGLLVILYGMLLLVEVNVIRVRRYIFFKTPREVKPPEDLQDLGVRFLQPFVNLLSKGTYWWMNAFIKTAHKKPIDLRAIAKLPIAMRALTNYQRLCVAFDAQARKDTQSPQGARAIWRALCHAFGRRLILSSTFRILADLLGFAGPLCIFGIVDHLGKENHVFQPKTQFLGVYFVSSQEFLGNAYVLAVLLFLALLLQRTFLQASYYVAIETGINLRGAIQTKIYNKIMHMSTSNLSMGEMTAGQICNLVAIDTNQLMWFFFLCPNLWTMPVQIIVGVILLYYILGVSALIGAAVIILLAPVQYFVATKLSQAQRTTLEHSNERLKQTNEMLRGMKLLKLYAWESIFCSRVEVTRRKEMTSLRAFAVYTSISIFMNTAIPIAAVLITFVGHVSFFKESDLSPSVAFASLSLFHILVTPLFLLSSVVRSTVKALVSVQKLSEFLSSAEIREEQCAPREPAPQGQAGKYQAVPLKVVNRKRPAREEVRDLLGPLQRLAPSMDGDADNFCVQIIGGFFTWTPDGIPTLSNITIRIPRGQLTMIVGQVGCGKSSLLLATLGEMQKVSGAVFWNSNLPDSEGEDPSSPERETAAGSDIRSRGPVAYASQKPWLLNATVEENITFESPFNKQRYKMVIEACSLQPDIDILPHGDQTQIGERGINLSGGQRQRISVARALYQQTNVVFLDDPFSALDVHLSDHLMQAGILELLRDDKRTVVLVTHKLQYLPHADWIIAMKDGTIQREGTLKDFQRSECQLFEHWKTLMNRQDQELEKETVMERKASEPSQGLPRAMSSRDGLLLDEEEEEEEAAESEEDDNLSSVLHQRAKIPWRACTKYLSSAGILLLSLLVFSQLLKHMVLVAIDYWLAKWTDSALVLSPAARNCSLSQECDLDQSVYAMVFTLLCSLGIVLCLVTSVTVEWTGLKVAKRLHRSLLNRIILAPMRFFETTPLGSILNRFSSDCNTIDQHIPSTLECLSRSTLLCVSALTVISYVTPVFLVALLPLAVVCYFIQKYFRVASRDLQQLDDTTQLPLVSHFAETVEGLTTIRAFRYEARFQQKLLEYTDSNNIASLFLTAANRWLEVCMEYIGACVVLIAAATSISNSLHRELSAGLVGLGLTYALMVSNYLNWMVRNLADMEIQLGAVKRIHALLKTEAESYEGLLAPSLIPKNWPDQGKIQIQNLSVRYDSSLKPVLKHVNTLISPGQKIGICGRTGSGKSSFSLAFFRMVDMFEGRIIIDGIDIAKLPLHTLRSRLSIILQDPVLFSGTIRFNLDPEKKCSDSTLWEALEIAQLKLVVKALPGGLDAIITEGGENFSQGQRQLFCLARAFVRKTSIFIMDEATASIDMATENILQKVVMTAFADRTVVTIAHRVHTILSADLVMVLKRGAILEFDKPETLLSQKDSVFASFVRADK

rat SUR2A = rat SUR2A (Rattus norvegicus, UniProt Q63563); assay: In vitro binding affinity to rodent KATP channels: SUR2A ([3H]P1075 / [3H]glibenclamide displacement, COS cell membranes)
Chain of rat SUR2A (Q63563 whole entry): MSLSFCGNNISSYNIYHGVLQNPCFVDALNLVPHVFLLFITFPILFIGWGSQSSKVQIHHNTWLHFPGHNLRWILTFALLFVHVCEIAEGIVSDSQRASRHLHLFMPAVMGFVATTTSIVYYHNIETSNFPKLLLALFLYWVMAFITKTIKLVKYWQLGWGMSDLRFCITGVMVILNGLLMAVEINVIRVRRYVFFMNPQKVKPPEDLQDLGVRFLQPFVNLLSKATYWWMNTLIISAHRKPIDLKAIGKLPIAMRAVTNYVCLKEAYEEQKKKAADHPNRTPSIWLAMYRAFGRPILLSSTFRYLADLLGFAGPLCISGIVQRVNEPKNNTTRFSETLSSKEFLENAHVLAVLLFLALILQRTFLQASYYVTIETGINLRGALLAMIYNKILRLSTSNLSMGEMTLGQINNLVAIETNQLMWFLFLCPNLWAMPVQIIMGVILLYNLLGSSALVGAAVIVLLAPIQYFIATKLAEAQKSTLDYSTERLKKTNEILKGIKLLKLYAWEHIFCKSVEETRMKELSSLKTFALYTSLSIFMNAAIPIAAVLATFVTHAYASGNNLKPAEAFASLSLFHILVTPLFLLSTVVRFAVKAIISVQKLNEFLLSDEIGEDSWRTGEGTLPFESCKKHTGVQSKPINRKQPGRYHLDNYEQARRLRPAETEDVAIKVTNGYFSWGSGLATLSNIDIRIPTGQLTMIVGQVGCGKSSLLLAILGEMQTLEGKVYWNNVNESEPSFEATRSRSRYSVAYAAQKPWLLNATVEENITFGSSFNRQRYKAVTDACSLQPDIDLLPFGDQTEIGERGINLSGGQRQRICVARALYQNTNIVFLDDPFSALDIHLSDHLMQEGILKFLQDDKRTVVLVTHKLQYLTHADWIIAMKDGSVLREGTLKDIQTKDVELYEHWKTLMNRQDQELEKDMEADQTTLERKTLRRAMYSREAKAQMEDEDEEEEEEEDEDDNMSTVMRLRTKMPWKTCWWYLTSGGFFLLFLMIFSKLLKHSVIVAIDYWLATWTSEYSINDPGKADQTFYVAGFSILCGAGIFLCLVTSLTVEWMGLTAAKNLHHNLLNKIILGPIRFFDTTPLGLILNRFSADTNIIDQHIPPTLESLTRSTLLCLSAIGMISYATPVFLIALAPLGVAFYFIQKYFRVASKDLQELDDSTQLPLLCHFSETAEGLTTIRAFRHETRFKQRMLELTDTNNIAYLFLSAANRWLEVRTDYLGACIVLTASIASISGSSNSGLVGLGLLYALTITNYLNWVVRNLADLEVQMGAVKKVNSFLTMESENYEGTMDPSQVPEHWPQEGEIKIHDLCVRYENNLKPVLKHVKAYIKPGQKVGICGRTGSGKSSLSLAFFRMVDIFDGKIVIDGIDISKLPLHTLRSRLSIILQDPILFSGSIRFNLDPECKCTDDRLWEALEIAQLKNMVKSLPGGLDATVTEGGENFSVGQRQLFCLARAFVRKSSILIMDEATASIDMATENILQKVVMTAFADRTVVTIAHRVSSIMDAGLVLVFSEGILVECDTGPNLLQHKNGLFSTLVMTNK
Method in brief: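 COS-cell membranes transiently expressing rat SUR2A incubated 1 h at room temperature in 50 mM Tris pH 7.4, ~0.7 mM free Mg2+, with 3 nM [3H]P1075 (wild type) or [3H]glibenclamide (SUR2AY1205S); filtration read-out. Ki from IC50, reported as pKi; 9-15 concentrations per curve.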

[3] = cloned human CB2 receptor expressed in CHO cells, read-out: Affinity to CB2 (converted)

Chain of human cannabinoid CB2 receptor (P34972 whole entry): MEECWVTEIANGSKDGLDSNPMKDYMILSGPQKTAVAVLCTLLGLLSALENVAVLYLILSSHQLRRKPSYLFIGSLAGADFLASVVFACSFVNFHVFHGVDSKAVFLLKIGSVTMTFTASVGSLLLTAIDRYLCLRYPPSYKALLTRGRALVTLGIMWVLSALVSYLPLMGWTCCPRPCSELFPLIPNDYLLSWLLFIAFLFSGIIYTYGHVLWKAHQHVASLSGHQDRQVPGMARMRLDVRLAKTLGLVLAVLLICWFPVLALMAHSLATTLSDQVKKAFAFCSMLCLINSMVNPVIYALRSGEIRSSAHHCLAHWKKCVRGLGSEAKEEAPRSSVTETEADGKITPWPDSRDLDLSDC

SMILES | Ki [1, 3] [nM] | % Inhibition 0-30 (insulin secretion) [2] [%] | % Inhibition 30-60 (insulin secretion) [2] [%] | Ki (hamster SUR1) [nM] | pKi (rat SUR2A) | Ki [1] [nM]
CN1CCCCC1Cn1cc(C(=O)c2cc([N+](=O)[O-])ccc2I)c2ccccc21 (stereo not shown) [AM-1241, (2-Iodo-5-nitro-phenyl)-[1-(1-methyl-piperidin-2-ylmethyl)-1H-indol-3-yl]-methanone, reference compound] | 15.8 | 97 | 74 | 3980 |  | 
CN/C(=N\S(=O)(=O)N(C)C)N1CC(c2cccc(F)c2)C(c2ccc(Cl)cc2)=N1 (stereo not shown) [N-{[3-(4-Chloro-phenyl)-4-(3-fluoro-phenyl)-4,5-dihydro-pyrazol-1-yl]-methylamino-methylene}-N,N-dimethyl-sulfonamide] |  | 72 | 77 | 100 | 5.3 | 
CSc1c(C(=O)NN2CCCCC2)nc(-c2ccccc2Cl)n1-c1ccc(Cl)cc1 [1-(4-Chloro-phenyl)-2-(2-chloro-phenyl)-5-methylsulfanyl-1H-imidazole-4-carboxylic acid piperidin-1-ylamide] | 6310 | 56 | 36 | 6.31 |  | 
CN(C)CCNC(=NS(=O)(=O)N1CCCCC1)N1CC(c2ccccc2)C(c2ccc(Cl)cc2)=N1 (stereo not shown) [Piperidine-1-sulfonic acid [3-(4-chloro-phenyl)-4-phenyl-4,5-dihydro-pyrazol-1-yl]-(2-dimethylamino-ethylamino)-methyleneamide] |  | 71 | 64 | 100000 | 4.0 | 
CN/C(=N\S(=O)(=O)c1ccc(C(F)(F)F)cc1)N1CC(c2cccnc2)C(c2ccc(Cl)cc2)=N1 (stereo not shown) [N-([3-(4-Chloro-phenyl)-4-pyridin-3-yl-4,5-dihydro-pyrazol-1-yl]-methylamino-methylene}-4-trifluoromethyl-benzenesulfonamide] |  | 58 | 31 | 501 | 4.9 | 
CCCCCCC(C)(C)c1ccc([C@@H]2C[C@H](O)CC[C@H]2CCCO)c(O)c1 (stereo in doubt) [CP55940, 5-(1,1-Dimethyl-heptyl)-2-[5-hydroxy-2-(3-hydroxy-propyl)-cyclohexyl]-phenol, reference compound] |  | 91 | 56 | 5010 |  | 
CNC(=NS(=O)(=O)N1CCCCC1)C1=NN(c2ccc(Cl)cc2)C(c2ccccc2)C1 (stereo not shown) [Piperidine-1-sulfonic acid [1-(4-chloro-phenyl)-5-phenyl-4,5-dihydro-1H-pyrazol-3-yl]-methylamino-methyleneamide] |  | 84 | 47 | 794 | 4.5 | 
CCc1c(C(=O)NN2CCCCC2)nc(-c2ccccc2Cl)n1-c1ccc(Cl)cc1 [1-(4-Chloro-phenyl)-2-(2-chloro-phenyl)-5-ethyl-1H-imidazole-4-carboxylic acid piperidin-1-ylamide, reference compound] |  | 59 | 45 |  | 4.8 | 1000

From patent US20070254863A1 (priority 2006, published 2007)
